{"source": "patent EP0197829A1", "about": "“5H-pyrido[3',4':4,5]pyrrolo[3,2-c]pyridine derivatives, process for their preparation and their antitunour activity” (SANOFI, priority 1985, dated 1986)", "key": {"[1]": {"tested_on": "lignée tumorale leucémie L 1210", "experiment": "In vitro cytotoxicity on L 1210 leukemia cell culture", "assay_type": "cell-based", "conditions": "concentration inhibiting cell proliferation by 50 p. 100, after 48 h contact; read-out: ID 50 (the source's name)", "experimental": "1) In vitro : (PAOLETTI et al., Chem. Biol. Interaction, 1979, 25, 45-58).\nL'activité cytotoxique des composés de l'invention a été évaluée par des essais in vitro. Ces essais consistent à ajouter des concentrations croissantes du composé à tester à une culture cellulaire de la lignée tumorale leucémie L 1210 en phase exponentielle de croissance. Les cellules sont incubées à 37°C dans une étuve à C02 et comptées toutes les 24 heures. Le calcul de l'ID 50 (concentration du produit exprimée en micromole 1^-1 qui inhibe la prolifération cellulaire à 50 p. 100) est effectué après 48 heures de contact. Ainsi déterminées, les ID 50 des composés de l'invention sont rassemblées dans le tableau I ci-après : […]"}, "souris BDF1 saines": {"tested_on": "souris BDF1 saines", "experiment": "in vivo", "conditions": "mouse, ip, 200 mg/kg", "experimental": "Ainsi, l'administration à des souris hybrides CDF1 saines, en une injection unique par la voie intrapéritonéale, de doses croissantes des composés à tester (5 mg, 10 mg, 20 mg, 40 mg/kg) a permis de constater que, à ces doses, les produits étaient parfaitement tolérés puisque le taux de survivants était de 100 p. 100.\nDans les mêmes conditions, administrés à des souris BDF1 saines, les taux de survivants étaient de 100 p. 100 jusqu'à 100 mg/kg pour les dérivés 1, 3 et 9 et jusqu'à 200 mg/kg pour les dérivés 2 et 8."}, "leucémie P 388": {"tested_on": "leucémie P 388", "assay_type": "in vivo, souris hybrides CDF1", "conditions": "for Survivants: at day J 40", "from_the_text": "L'activité antitumorale a été testée in vivo sur différentes tumeurs selon le protocole général suivant : Toutes les souris mâles ou femelles sont inoculées par voie intrapéritonéale au jour Jo avec une quantité déterminée de cellules tumorales viables, variable selon la tumeur.\nElles sont ensuite réparties en différents lots. Chaque lot correspondant aux animaux traités par le produit à tester à une dose déterminée est composé de lO souris. Dans ce cas, le produit à tester est dissous dans l'eau distillée et il est administré, pendant n jours (J1-Jn) variables selon le protocole choisi, par voie intrapéritonéale à raison de 0,1 ml par lO g de poids des souris traitées, les doses du produit administré étant précisées dans les tableaux ci-dessous.\nLe lot \"Contrôle négatif\", correspondant aux animaux qui ne sont pas traités par un produit, comprend 2 √N animaux, N étant égal au nombre total de souris traitées par un produit.\nEnfin, tous lés essais sont conduits parallèlement à l'étude d'un lot appelé \"Contrôle positif\" de 10 animaux qui est traité par une molécule active, variable selon le protocole choisi, dans les mêmes conditions que les lots traités par le produit à tester, afin de valider l'essai.\nL'activité antitumorale est évaluée en considérant l'augmentation du temps de survie des animaux traités par rapport à celui des animaux du lot \"Contrôle négatif\" selon la formule : • Jour médian de survie des animaux traités à une T/C = dose donnée de produit x 100 • Jour médian de survie des animaux \"Contrôle négatif\"\nUn composé est considéré comme étant actif lorsque la valeur du rapport T/C est égale ou supérieure à 125 % selon le protocole retenu. Il est toxique lorsque cette valeur est égale ou inférieure à 85 %. Le produit est également considéré comme toxique lorsque la variation pondérale, exprimée en grammes et calculée par la formule : Poids moyen du lot mesuré au jour 5 - poids moyen du même lot au jour 1, est égale ou inférieure à -4g . a) Test de la leucémie P 388 (GERAN et al., Cancer Chemother, 1972, 2, 07-57).\nLes essais sont effectués avec des souris hybrides CDF1 inoculées par voie intrapéritonéale avec […] leucémiques de la lignée P 388. Le composé à tester est administré pendant 5 jours (Jl-J5). Le contrôle positif du test est le 5-fluorouracile qui est administré dans les mêmes conditions.\n[…] Un composé est considéré comme étant actif lorsque le rapport T/C est supérieur à 127 %."}}, "note": "Where two headings read alike, the source gives them in different places.", "data": [{"substance": "diméthyl-4,5[(éthylamino-3 propyl-1)amino]-1 5-H pyrido[3',4':4,5]pyrrolo[3,2-c]pyridine [Dérivé N° 8]", "values": [{"measurement": "IC50", "setting": "[1]", "value": 3.8, "unit": "µM"}, {"measurement": "taux de survivants", "setting": "souris BDF1 saines", "value": 100, "unit": "p. 100"}, {"measurement": "Jour médian de survie", "setting": "leucémie P 388; 5 mg/kg i.p. J1-J5", "value": "13,4"}, {"measurement": "T/C %", "setting": "leucémie P 388; 5 mg/kg i.p. J1-J5", "value": 116, "unit": "%"}, {"measurement": "Survivants", "setting": "leucémie P 388; 5 mg/kg i.p. J1-J5", "value": 0}, {"measurement": "Jour médian de survie", "setting": "leucémie P 388; 10 mg/kg i.p. J1-J5", "value": "14,62"}, {"measurement": "T/C %", "setting": "leucémie P 388; 10 mg/kg i.p. J1-J5", "value": 127, "unit": "%"}, {"measurement": "Survivants", "setting": "leucémie P 388; 10 mg/kg i.p. J1-J5", "value": 0}, {"measurement": "Jour médian de survie", "setting": "leucémie P 388; 20 mg/kg i.p. J1-J5", "value": "16,75"}, {"measurement": "T/C %", "setting": "leucémie P 388; 20 mg/kg i.p. J1-J5", "value": 145, "unit": "%"}, {"measurement": "Survivants", "setting": "leucémie P 388; 20 mg/kg i.p. J1-J5", "value": 0}, {"measurement": "Jour médian de survie", "setting": "leucémie P 388; 40 mg/kg i.p. J1-J5", "value": "16,0"}, {"measurement": "T/C %", "setting": "leucémie P 388; 40 mg/kg i.p. J1-J5", "value": 138, "unit": "%"}, {"measurement": "Survivants", "setting": "leucémie P 388; 40 mg/kg i.p. J1-J5", "value": 0}, {"measurement": "Jour médian de survie", "setting": "leucémie P 388; 80 mg/kg i.p. J1-J5", "value": "17,25"}, {"measurement": "T/C %", "setting": "leucémie P 388; 80 mg/kg i.p. J1-J5", "value": 149, "unit": "%"}, {"measurement": "Survivants", "setting": "leucémie P 388; 80 mg/kg i.p. J1-J5", "value": 0}]}]}
